Laboratory results taken from ChEMBL document CHEMBL1201862, “PubChem BioAssay data set” (2004).
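Interpolation was linear, between the two tested concentrations surrounding the appropriate level; five concentrations were tested over 48 hours in 96-well plates. GI50 is the concentration that inhibits growth by half.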 Active and inactive are the calls of the source. Rule as the data show it: active = GI50 up to about 1.1 µM and inactive = higher.

Experiments:
Assay in all cases: DTP human tumour cell line panel, 48 h
[1] = tested on: 786-0
[2] = tested on: A549
[3] = tested on: CAKI-1
[4] = tested on: CCRF-CEM
[5] = tested on: COLO 205
[6] = tested on: DLD-1
[7] = tested on: DMS-114
[8] = tested on: EKVX
[9] = tested on: HCT-116
[10] = tested on: HL-60
[11] = tested on: HOP-18
[12] = tested on: HOP-62
[13] = tested on: HOP-92
[14] = tested on: HT-29
[15] = tested on: IGROV-1
[16] = tested on: K562
[17] = tested on: KM-20L2
[18] = tested on: KM12
[19] = tested on: LXFL 529
[20] = tested on: M14
[21] = tested on: M19-MEL
[22] = tested on: MOLT-4
[23] = tested on: Malme-3M
[24] = tested on: NCI-H23
[25] = tested on: NCI-H522
[26] = tested on: OVCAR-3
[27] = tested on: OVCAR-4
[28] = tested on: OVCAR-5
[29] = tested on: OVCAR-8
[30] = tested on: RPMI-8226
[31] = tested on: RXF 393
[32] = tested on: SF-268
[33] = tested on: SF-295
[34] = tested on: SF-539
[35] = tested on: SK-MEL-28
[36] = tested on: SK-MEL-5
[37] = tested on: SK-OV-3
[38] = tested on: SN12C
[39] = tested on: SNB-19
[40] = tested on: SNB-75
[41] = tested on: SR
[42] = tested on: SW-620
[43] = tested on: TK-10
[44] = tested on: U-251
[45] = tested on: UACC-62
[46] = tested on: UO-31
[47] = tested on: ACHN
[48] = tested on: DMS-273
[49] = tested on: HCT-15
[50] = tested on: LOX IMVI
[51] = tested on: NCI-H226
[52] = tested on: NCI-H460
[53] = tested on: SK-MEL-2
[54] = tested on: UACC-257
[55] = tested on: A498
[56] = tested on: HCC 2998
[57] = tested on: SNB-78

## NC1=NNC(=O)c2nnc3c(C(=O)O)cnn3c2S1
[1]
  GI50: > 100 µM (inactive)
[2]
  GI50: > 100 µM (inactive)
[3]
  GI50: > 100 µM (inactive)
[4]
  GI50: 10 µM (inactive)
[5]
  GI50: > 100 µM (inactive)
[6]
  GI50: > 100 µM (inactive)
[7]
  GI50: > 100 µM (inactive)
[8]
  GI50: > 100 µM (inactive)
[9]
  GI50: > 100 µM (inactive)
[10]
  GI50: > 100 µM (inactive)
[11]
  GI50: > 100 µM (inactive)
[12]
  GI50: > 100 µM (inactive)
[13]
  GI50: > 100 µM (inactive)
[14]
  GI50: > 100 µM (inactive)
[15]
  GI50: > 100 µM (inactive)
[16]
  GI50: > 100 µM (inactive)
[17]
  GI50: > 100 µM (inactive)
[18]
  GI50: > 100 µM (inactive)
[19]
  GI50: > 100 µM (inactive)
[20]
  GI50: > 100 µM (inactive)
[21]
  GI50: > 100 µM (inactive)
[22]
  GI50: > 100 µM (inactive)
[23]
  GI50: > 100 µM (inactive)
[24]
  GI50: > 100 µM (inactive)
[25]
  GI50: > 100 µM (inactive)
[26]
  GI50: > 100 µM (inactive)
[27]
  GI50: > 100 µM (inactive)
[28]
  GI50: > 100 µM (inactive)
[29]
  GI50: > 100 µM (inactive)
[30]
  GI50: > 100 µM (inactive)
[31]
  GI50: > 100 µM (inactive)
[32]
  GI50: > 100 µM (inactive)
[33]
  GI50: > 100 µM (inactive)
[34]
  GI50: > 100 µM (inactive)
[35]
  GI50: > 100 µM (inactive)
[36]
  GI50: > 100 µM (inactive)
[37]
  GI50: > 100 µM (inactive)
[38]
  GI50: > 100 µM (inactive)
[39]
  GI50: > 100 µM (inactive)
[40]
  GI50: 47.4 µM (inactive)
[41]
  GI50: > 100 µM (inactive)
[42]
  GI50: > 100 µM (inactive)
[43]
  GI50: > 100 µM (inactive)
[44]
  GI50: > 100 µM (inactive)
[45]
  GI50: > 100 µM (inactive)
[46]
  GI50: > 100 µM (inactive)

## O=c1cc(-c2ccccc2)[nH]c2c(F)ccc(F)c12
[1]
  GI50: 79.6 µM (inactive)
[2]
  GI50: 37.9 µM (inactive)
[47]
  GI50: > 100 µM (inactive)
[3]
  GI50: 56.6 µM (inactive)
[4]
  GI50: > 100 µM (inactive)
[5]
  GI50: 48.1 µM (inactive)
[6]
  GI50: > 100 µM (inactive)
[7]
  GI50: 28.7 µM (inactive)
[48]
  GI50: 24.3 µM (inactive)
[9]
  GI50: 40.6 µM (inactive)
[49]
  GI50: 26.7 µM
[10]
  GI50: 31.8 µM (inactive)
[11]
  GI50: > 100 µM (inactive)
[12]
  GI50: 56 µM (inactive)
[13]
  GI50: > 100 µM (inactive)
[14]
  GI50: 33.5 µM (inactive)
[15]
  GI50: > 100 µM (inactive)
[16]
  GI50: 30.3 µM (inactive)
[18]
  GI50: 18.5 µM (inactive)
[50]
  GI50: 49.3 µM (inactive)
[19]
  GI50: 68.5 µM (inactive)
[20]
  GI50: 35.4 µM (inactive)
[21]
  GI50: 41.4 µM (inactive)
[22]
  GI50: 46.2 µM (inactive)
[23]
  GI50: 31.7 µM (inactive)
[51]
  GI50: 37.6 µM (inactive)
[24]
  GI50: > 100 µM (inactive)
[52]
  GI50: 32.5 µM (inactive)
[25]
  GI50: 27.7 µM (inactive)
[27]
  GI50: > 100 µM (inactive)
[28]
  GI50: 43.9 µM (inactive)
[29]
  GI50: 82 µM (inactive)
[30]
  GI50: 31.1 µM (inactive)
[31]
  GI50: 97.1 µM (inactive)
[32]
  GI50: > 100 µM (inactive)
[33]
  GI50: 33 µM (inactive)
[34]
  GI50: 52.8 µM (inactive)
[35]
  GI50: 59.8 µM (inactive)
[53]
  GI50: 16.4 µM (inactive)
[36]
  GI50: 44.1 µM (inactive)
[37]
  GI50: > 100 µM (inactive)
[38]
  GI50: 63.5 µM (inactive)
[40]
  GI50: 15 µM (inactive)
[41]
  GI50: 13.3 µM (inactive)
[42]
  GI50: 35.3 µM (inactive)
[43]
  GI50: 61.9 µM (inactive)
[44]
  GI50: 41.4 µM (inactive)
[54]
  GI50: > 100 µM (inactive)
[45]
  GI50: 30.7 µM (inactive)
[46]
  GI50: 88.3 µM (inactive)

## CN(N=O)C(=O)ON1C(=O)CCC1=O
[1]
  GI50: > 100 µM (inactive)
[55]
  GI50: > 100 µM (inactive)
[2]
  GI50: > 100 µM (inactive)
[47]
  GI50: > 100 µM (inactive)
[3]
  GI50: > 100 µM (inactive)
[4]
  GI50: > 100 µM (inactive)
[6]
  GI50: > 100 µM (inactive)
[7]
  GI50: > 100 µM (inactive)
[48]
  GI50: > 100 µM (inactive)
[8]
  GI50: > 100 µM (inactive)
[56]
  GI50: > 100 µM (inactive)
[9]
  GI50: > 100 µM (inactive)
[49]
  GI50: > 100 µM
[10]
  GI50: > 100 µM (inactive)
[11]
  GI50: > 100 µM (inactive)
[12]
  GI50: > 100 µM (inactive)
[13]
  GI50: > 100 µM (inactive)
[14]
  GI50: > 100 µM (inactive)
[15]
  GI50: > 100 µM (inactive)
[16]
  GI50: > 100 µM (inactive)
[17]
  GI50: > 100 µM (inactive)
[18]
  GI50: > 100 µM (inactive)
[50]
  GI50: > 100 µM (inactive)
[19]
  GI50: > 100 µM (inactive)
[20]
  GI50: > 100 µM (inactive)
[21]
  GI50: > 100 µM (inactive)
[22]
  GI50: > 100 µM (inactive)
[23]
  GI50: > 100 µM (inactive)
[51]
  GI50: > 100 µM (inactive)
[24]
  GI50: > 100 µM (inactive)
[52]
  GI50: 47.8 µM (inactive)
[25]
  GI50: > 100 µM (inactive)
[26]
  GI50: > 100 µM (inactive)
[27]
  GI50: > 100 µM (inactive)
[28]
  GI50: > 100 µM (inactive)
[29]
  GI50: > 100 µM (inactive)
[30]
  GI50: > 100 µM (inactive)
[32]
  GI50: > 100 µM (inactive)
[33]
  GI50: > 10 µM (inactive)
[34]
  GI50: > 100 µM (inactive)
[35]
  GI50: > 100 µM (inactive)
[53]
  GI50: > 100 µM (inactive)
[36]
  GI50: > 100 µM (inactive)
[37]
  GI50: > 100 µM (inactive)
[39]
  GI50: > 100 µM (inactive)
[40]
  GI50: 54.1 µM (inactive)
[57]
  GI50: > 100 µM (inactive)
[42]
  GI50: > 100 µM (inactive)
[43]
  GI50: > 100 µM (inactive)
[54]
  GI50: > 100 µM (inactive)
[45]
  GI50: > 100 µM (inactive)
[46]
  GI50: > 100 µM (inactive)
